# Patent US20100021427A1, “Use of Antiviral Peptides For Treatment of Infections Caused by Drug-Resistant HIV” (Tianjin FusoGen Pharmaceuticals, Inc., priority 2008, published 2010)
# Assays:
# [1] = molecular target: T1, N36 (Human immunodeficiency virus type 1 group M subtype B, UniProt P04578); experiment: Circular dichroism (CD) spectroscopy and thermal denaturation of peptide/N36 mixtures; assay type: binding, HIV
# T1 construct: protease-resistant N- and C-peptides from gp41
# Description: Circular dichroism (CD) spectroscopy was performed following the method previously described in He, Y., et al. J.BIOL.CHEM. 2007; 282: 25631-25639. […] The final peptide concentration was 10 μM in 50 mM sodium phosphate and 150 mM NaCl, pH 7.2. The N-, C-peptides as well as FS-01 by itself was also tested. CD spectra of these individual peptides and peptide mixtures were acquired on Jasco spectropolarimeter (Model J-715, Jasco Inc., Japan) at room temperature using a 5.0-nm band with, 0.1-nm resolution, 0.1-cm path length, 4.0-s response time, and a 50-nm/min scanning speed. The spectra were corrected by subtraction of a blank corresponding to the solvent. The a-helical content was calculated from the CD signal by dividing the mean residue ellipticity at 222 nm by the value expected for 100% helix formation (−33,000 degrees cm^2 dmol^−1) according to existing literature (Shu, W., et al. BIOCHEMISTRY 2000; 39: 1634-1642; Chen, Y. H., et al. BIOCHEMISTRY 1974; 13: 3350-3359). Thermal denaturation was monitored at 222 nm by applying a thennal gradient of 2° C./min in the range of 4-98° C. To determine the reversibility, the peptide mixtures were then cooled to 4° C. and kept in the CD chamber at 4° C. for 30 min, followed by monitoring of thermal denaturation as described above. The melting curve was smoothened, and the midpoint of the thermal unfolding transition (Tm) values was calculated using Jasco software utilities.
# [2] = molecular target: T1, N36; experiment: Native polyacrylamide gel electrophoresis (N-PAGE), 6-HB formation; assay type: binding, HIV; details: 40 μM, 37° C. 30 min
# Description: Native polyacrylamide gel electrophoresis (N-PAGE) was carried out to determine the 6-HB formation between the N- and C-peptides using the described previously (Liu, S., et al. PEPTIDES 2003, 24:1303-1313). […] The mixture was loaded onto a 10×1.0-cm precast 18% Tris-glycine gels (Invitrogen, Carlsbad, Calif.) at 25 μL/per well with an equal volume of Tris-glycine native sample buffer (Invitrogen). Gel electrophoresis was carried out with 125 V constant voltage at room temperature for 2 h. The gel was then stained with Coomassie blue and imaged with a FluorChem 8800 Imaging System (Alpha Innotech Corp., San Leandro, Calif.).
# [3] = molecular target: T2, 6-HB between C34-biotin and N36 (Human immunodeficiency virus type 1 group M subtype B, UniProt P04578); experiment: ELISA (mAb NC-1) of inhibition of 6-helix bundle formation; assay type: biochemical, HIV
# T2 construct: protease-resistant N- and C-peptides from gp41
# T2 sequence (P04578 546-581): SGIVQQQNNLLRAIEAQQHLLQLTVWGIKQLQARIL
# Description: A 96-well polystyrene plate (Costar, Corning Inc., Corning, N.Y.) was coated with a 6-HB-specific monoclonal antibody NC-1 IgG (4 μg/mL in 0.1 M Tris, pH 8.8). […] The mixture was then added to the NC-1-coated plate, followed by incubation at room temperature for 30 min and washing with a washing buffer (PBS containing 0.1 % Tween 20) three times. Then streptavidin-labeled horseradish peroxidase (Invitrogen) and the substrate 3,3′,5,5′-tetramethylbenzidine (Sigma) were added sequentially. Absorbance at 450 nm (A450) was measured using an ELISA reader (Ultra 384, Tecan, Research Triangle Park, N.C.). The percent inhibition by the peptides and the IC50 values were calculated as previously described (Jiang, S. B., et al J.EXP.MED. 1991; 174: 1557-1563).
# [4] = system: HIV-1IIIB-mediated cell-cell fusion (H9/HIV-1IIIB-infected cells with MT-2 cells); experiment: Dye transfer assay of HIV-1 mediated cell-cell fusion; assay type: cell-based; details: for IC50: 37° C. for 2 h, read-out: IC50, inhibition of cell-cell fusion
# Description: (§1) A dye transfer assay was used for detection of HIV-1 mediated cell-cell fusion as previously described in (Jiang, S., et al. Antimicrob.Agents Chemother. 2004; 48: 4349-4359. In brief, H9/HIV-1IIIB-infected cells were labeled with a fluorescent reagent, Calcein-AM (Molecular Probes, Inc., Eugene, OR) and then incubated with MT-2 cells (ratio =1:5) in 96-well plates at 37° C. for 2 h in the presence or absence of peptides. The fused and unfused calcein-labeled HIV-1-infected cells were counted under an inverted fluorescence microscope (Zeiss, Germany) with an eyepiece micrometer disc. The inhibition percent of cell-cell fusion and the IC50 values were calculated as described. […] The inhibitory activity of FS-01 on HIV-1-mediated infection was conducted too.
# [5] = system: HIV-1IIIB; experiment: HIV-1IIIB-mediated infection of MT-2 cells; assay type: cell-based
# Description: as §1
# Two T20-sensitive and five T20-resistant strains with well defined genetic mutations conferring the resistance were used in this experiment (Rimsky, L. T., et al. J.VIROL. 1998; 72: 986-993). Briefly, 1×10^4 MT-2 cells were infected with HIV-1 isolates at 100 TCID50 (50% tissue culture infective dose) in 200 μl RPMI 1640 medium containing 10% FBS in the presence or absence of FS-01 at graded concentrations overnight. Then the culture supernatants were removed and fresh media without FS-01 were added. […]
# [6] = system: 92TH009 (clade E, R5); experiment: Primary HIV-1 isolate infection of PBMC, p24 ELISA; assay type: cell-based; details: p24 production, 7 days post infection; for IC50: read-out: IC50 (Mean ± SD); for IC90: read-out: IC90 (Mean ± SD)
# Description: (§2) The inhibitory activity of FS-01 against primary HIV-1 isolates was determined as previously described in (Jiang, S., et al. ANTIMICROB. AGENTS CHEMOTHER. 2004; 48: 4349-4359. The peripheral blood mononuclear cells (PBMC) were isolated from the blood of healthy donors using a standard density gradient (Histopaque-1077, Sigma) centrifugation. The cells were plated in 75-cm plastic flasks and incubated at 37° C. for 2 h. The nonadherent cells were collected and resuspended at 5×10^5/mL in RPMI 1640 medium containing 10% FBS, 5 μg of phytohemagglutinin (PHA)/mL, and 100 U of interleukin-2/mL, followed by incubation at 37° C. for 3 days. The PHA-stimulated cells were infected with the corresponding primary HIV-1 isolates at a multiplicity of infection (MOI) of 0.01 in the absence or presence of FS-01 at graded concentrations. Culture media were changed every 3 days. The supernatants were collected 7 days post infection and tested for p24 antigen by ELISA. The percent inhibition of p24 production and IC50/IC90 values were calculated.
# [7] = system: 92UG001 (clade D, X4R5); experiment: Primary HIV-1 isolate infection of PBMC, p24 ELISA; assay type: cell-based; details: p24 production, 7 days post infection; for IC50: read-out: IC50 (Mean ± SD); for IC90: read-out: IC90 (Mean ± SD)
# Description: as §2
# [8] = system: 92US657 (clade B, R5); experiment: Primary HIV-1 isolate infection of PBMC, p24 ELISA; assay type: cell-based; details: p24 production, 7 days post infection; for IC50: read-out: IC50 (Mean ± SD); for IC90: read-out: IC90 (Mean ± SD)
# Description: as §2
# [9] = system: 93BR020 (clade F, X4R5); experiment: Primary HIV-1 isolate infection of PBMC, p24 ELISA; assay type: cell-based; details: p24 production, 7 days post infection; for IC50: read-out: IC50 (Mean ± SD); for IC90: read-out: IC90 (Mean ± SD)
# Description: as §2
# [10] = system: 93IN101 (clade C, R5); experiment: Primary HIV-1 isolate infection of PBMC, p24 ELISA; assay type: cell-based; details: p24 production, 7 days post infection; for IC50: read-out: IC50 (Mean ± SD); for IC90: read-out: IC90 (Mean ± SD)
# Description: as §2
# [11] = system: 94UG103 (clade A, X4R5); experiment: Primary HIV-1 isolate infection of PBMC, p24 ELISA; assay type: cell-based; details: p24 production, 7 days post infection; for IC50: read-out: IC50 (Mean ± SD); for IC90: read-out: IC90 (Mean ± SD)
# Description: as §2
# [12] = system: NL4-3 (N42S); assay type: cell-based, HIV-1; details: T20-sensitive (S) virus, MT-2 cells, p24, fourth day; read-out: IC50 (Mean ± SD)
# Description: (§3) Two T20-sensitive and five T20-resistant strains with well defined genetic mutations conferring the resistance were used in this experiment (Rimsky, L. T., et al. J.VIROL. 1998; 72: 986-993). Briefly, 1×10^4 MT-2 cells were infected with HIV-1 isolates at 100 TCID50 (50% tissue culture infective dose) in 200 μl RPMI 1640 medium containing 10% FBS in the presence or absence of FS-01 at graded concentrations overnight. Then the culture supernatants were removed and fresh media without FS-01 were added. On the fourth day post-infection, 100 μl of culture supernatants were collected from each well, mixed with equal volumes of 5% Triton X-100 and assayed for p24 antigen by ELISA.
# [13] = system: NL4-3 (N42T/N43K); assay type: cell-based, HIV-1; details: T20-resistant (R) virus, MT-2 cells, p24, fourth day; read-out: IC50 (Mean ± SD)
# Description: as §3
# [14] = system: NL4-3 (V38A); assay type: cell-based, HIV-1; details: T20-resistant (R) virus, MT-2 cells, p24, fourth day; read-out: IC50 (Mean ± SD)
# Description: as §3
# [15] = system: NL4-3 (V38A/N42D); assay type: cell-based, HIV-1; details: T20-resistant (R) virus, MT-2 cells, p24, fourth day; read-out: IC50 (Mean ± SD)
# Description: as §3
# [16] = system: NL4-3 (V38A/N42T); assay type: cell-based, HIV-1; details: T20-resistant (R) virus, MT-2 cells, p24, fourth day; read-out: IC50 (Mean ± SD)
# Description: as §3
# [17] = system: NL4-3 (V38E/N42S); assay type: cell-based, HIV-1; details: T20-resistant (R) virus, MT-2 cells, p24, fourth day; read-out: IC50 (Mean ± SD)
# Description: as §3
# [18] = system: NL4-3 (parental); assay type: cell-based, HIV-1; details: T20-sensitive (S) virus, MT-2 cells, p24, fourth day; read-out: IC50 (Mean ± SD)
# Description: as §3
# [19] = system: POPC LUVs; experiment: Isothermal titration calorimetry (ITC), peptide-lipid binding; details: LUVs injected into peptide solution
# Description: (§4) So, the POPC LUV liposome system was employing to investigate the binding activity of FS-01 to lipid membranes. Large unilamellar vesicles (LUVs) of 1-palmitoyl-2-oleoyl-sn-glycero-3-phosphocholine (POPC) liposome were prepared as previously described (Liu, S., et al. J.BIOL.CHEM. 2007; 282: 9612-9620). Briefly, 20 mg of POPC stock solution was dried under a stream of nitrogen and stored in vacuum overnight to completely remove trace amounts of organic solvent. The dried lipid film was suspended by vortexing in 2 mL PBS buffer. The resultant multilamellar vesicle suspension was freeze-thawed for 5 cycles and then successively extruded through two stacked polycarbonate filters (0.1 μm) 13 times using an Avanti miniextruder.
# Solutions were degassed under vacuum prior to use. LUVs of POPC were injected into the chamber containing a peptide solution or buffer only (as a control). The heats generated in control experiments by injecting lipid vesicles into buffer without a peptide were subtracted from the heats produced in the corresponding peptide-lipid binding experiments. Data acquisition and analyses were performed using MicroCal's Origin software (Version 7.0).
# [20] = system: POPC LUVs; experiment: Tryptophan fluorescence spectroscopy, peptide-lipid interaction; assay type: binding; details: peptide 10 μM, POPC LUVs 2 mM, excitation 295 nm
# Description: as §4
# Spectra were baseline-corrected by subtracting blank spectra of the corresponding solutions without peptide.
# T1 sequence (P04578 546-581): as above
Substance,IC50 [4] [nM],IC50 [6] [nM],IC90 [6] [nM],IC50 [7] [nM],IC90 [7] [nM],IC50 [8] [nM],IC90 [8] [nM],IC50 [9] [nM],IC90 [9] [nM],IC50 [10] [nM],IC90 [10] [nM],IC50 [11] [nM],IC90 [11] [nM],IC50 [12] [nM],IC50 [13] [nM],IC50 [14] [nM],IC50 [15] [nM],IC50 [16] [nM],IC50 [17] [nM],IC50 [18] [nM],other results
Ac-SWETWEREIENYTRQIYRILEESQEQQDRNERDLLE-NH2 [FS-01],3.6,210 ± 9.91,619 ± 39,11.9 ± 3.01,35.7 ± 6.59,27.8 ± 8.66,212 ± 84,12.5 ± 6.76,71.6 ± 28.5,34.3 ± 3.21,90.6 ± 6.5,3.94 ± 1.29,7.43 ± 2.16,2.68 ± 0.87,37.8 ± 15.6,3.44 ± 0.23,47.8 ± 4.7,30.4 ± 4.36,43.5 ± 3.36,12.6 ± 1.18,"higher melting temperature of FS-01/N36 complex compared to C34/N36 complex [1]: 10 °C; helical content in the presence of N36 ([1]; CD at 222 nm, equal molar with N36, 10 μM, pH 7.2): 93%; formation of α-helical complexes with N36 (CD minimum at 208 and 222 nm) ([1]; equal molar with N36, 10 μM): formation of secondary α-helical structure; melting temperature (Tm) of complex with N36 ([1]; thermal denaturation monitored at 222 nm): about 72 °C; 6-HB formation with N36 (up-shift of peptide band) [2]: able to form 6-HB with N36; IC50 [3]: 120 nM; fold more active than T20 in inhibiting membrane fusion [4]: about 6 fold; inhibition of HIV-1IIIB-mediated infection of MT-2 cells, compared with T20 [5]: more potent; binding constant to POPC LUVs [19]: too weak to calculate the binding constant; shift of tryptophan fluorescence spectra in POPC LUVs compared to PBS [20]: did not show remarkable fluorescence spectra shift"
enfuvirtide,21.4,221 ± 58.3,724 ± 56.6,185 ± 23.3,501 ± 70.8,41.5 ± 8.76,177 ± 15.9,73.7 ± 8.57,204 ± 28,47.2 ± 4.73,130 ± 16.8,83.8 ± 12.1,151 ± 8.8,26.9 ± 13,> 2000,> 2000,> 2000,> 2000,> 2000,22 ± 1.19,binding constant to POPC LUVs [19]: about 5×10^4 M^−1
